Source: patent US20250107525A1, “CARBOXYLIC ACID-DERIVED KETO-DIESTERS AND USES THEREOF” (The United States of America, as represented by the …, priority 2023, published 2025)
Entries after “also recorded” stand apart in the source; their conditions may differ.

Assays:
[1] = tested on: monocot bentgrass (Agrostis stolonifera); test: primary bioassay, bentgrass seeds exposed to 1000 μM solution for 7 days; type: in vivo; conditions: for growth of bentgrass seedlings: compared to negative controls H2O or 10% acetone
Method: The phytotoxic activity of compounds belonging to formula (III), (V), or (VII) classes were evaluated in a primary bioassay. The synthetic triketone herbicides mesotrione and sulcotrione were used as positive controls. The seeds of monocot bentgrass (Agrostis stolonifera) and dicot Arabidopsis (Arabidopsis thaliana) were exposed for 7 days to 1000 μM solution of each chemical. […] Chlorosis of treated seedlings is a common symptom of HPPD enzyme inhibition, and the obtained results are an initial confirmation this mode of action for these new compounds. Next, a detailed assessment of phytotoxic activity of potential herbicide candidates was accomplished by measurement a growth of duckweed (Lemna paucicostata) frond surface (Table 1). Mesotrione and sulcotrione were used as positive controls.
(§1) The synthetic triketone herbicides mesotrione and sulcotrione were used as positive controls. For comparative purposes, water as well as 10% acetone in water were used as negative controls. The seeds of monocot bentgrass (Agrostis stolonifera) and dicot Arabidopsis (Arabidopsis thaliana) were exposed for 7 days to 1000 μM solution of each chemical. […] Chlorosis of treated seedlings is a common symptom of a typical HPPD enzyme inhibition, and the obtained results are an initial confirmation this mode of action for these new compounds.
The synthetic triketone herbicides mesotrione and sulcotrione were used as positive controls. For comparative purposes, water as well as 10% acetone in water were used as negative controls. The seeds of monocot bentgrass (Agrostis stolonifera) and dicot Arabidopsis (Arabidopsis thaliana) were exposed for 7 days to 1000 μM solution of each chemical.
as §1, with “The phytotoxic activity of compounds belonging to formula (VII) (compounds (VII-1) and (VII-2)) was evaluated in a primary bioassay. The synthetic” for “The synthetic”

[2] = tested on: duckweed (Lemna paucicostata); test: secondary bioassay, dose-response curve based on growth rate of duckweed frond surface; type: in vivo; conditions: for IC50: Lemna aequinoctialis, growth rate of duckweed (Lemna paucicostata) frond surface, read-out: IC50 (μM), herbicidal activity in a secondary bioassay; for activity compared with commercial herbicides bentazon, clomazone, glyphosate, glufosinate, asulam, chloropropham and EPTC in the same bioassay: comparison with data of Michel, A., et al. (2004)
Method: The phytotoxic activity of compounds belonging to formula (III), (V), or (VII) classes were evaluated in a primary bioassay. […] The seeds of monocot bentgrass (Agrostis stolonifera) and dicot Arabidopsis (Arabidopsis thaliana) were exposed for 7 days to 1000 μM solution of each chemical. […] Next, a detailed assessment of phytotoxic activity of potential herbicide candidates was accomplished by measurement a growth of duckweed (Lemna paucicostata) frond surface (Table 1).
Next, a detailed assessment of the phytotoxic activity of the potential herbicide candidates was done by calculating dose-response curve base on growth rate of duckweed (Lemna paucicostata) frond surface.
Next, a detailed assessment of the phytotoxic activity of the potential herbicide candidates was done by calculating dose-response curves base on growth rate of duckweed (Lemna paucicostata) frond surface.
Next, a detailed assessment of the phytotoxic activity of the potential herbicide candidates was done by calculating dose-response curve based on the growth rate of duckweed (Lemna paucicostata) frond surface.

| Structure (SMILES) | chlorosis of bentgrass seedlings [1] | growth of bentgrass seedlings [1] | IC50 [2] | activity compared with commercial herbicides bentazon, clomazone, glyphosate, glufosinate, asulam, chloropropham and EPTC in the same bioassay [2] |
| --- | --- | --- | --- | --- |
| CC1(C)OC(=O)C(=C(O)c2ccc(S(C)(=O)=O)cc2[N+](=O)[O-])C(=O)O1 [III-3, 2,2-dimethyl-5-(4-(methylsulfonyl)-2-nitrobenzoyl)-1,3-dioxane-4,6-dione] | did not develop chlorosis | growth of some of them was reduced | – | – |
| CC1(C)OC(=O)C(=C(O)c2ccc(C(F)(F)F)cc2[N+](=O)[O-])C(=O)O1 [III-2, 2,2-dimethyl-5-(2-nitro-4-(trifluoromethyl)benzoyl)-1,3-dioxane-4,6-dione] | most of them were chlorotic; also recorded: most of them developed symptoms of chlorosis | significantly impacted growth; also recorded: significantly reduced growth | 1.9 µM | more active |
| CC1(C)OC(=O)C(=C(O)CCc2ccccc2)C(=O)O1 [III-4, 2,2-dimethyl-5-(3-phenylpropanoyl)-1,3-dioxane-4,6-dione] | – | – | 13.2 µM | – |
| CC(C)CC(O)=C1C(=O)OC(C)(C)OC1=O [VII-1, 2,2-dimethyl-5-(3-methylbutanoyl)-1,3-dioxane-4,6-dione] | – | – | 1.14 µM | – |
| O=C1OC2(CCCC2)OC(=O)C1=C(O)CCc1ccccc1 [III-5, 8-(3-phenylpropanoyl)-6, 10-dioxaspiro [4.5] decane-7,9-dione] | – | – | 17.9 µM | – |
| CC1(C)OC(=O)C(=C(O)c2ccc(S(C)(=O)=O)cc2Cl)C(=O)O1 [III-1, 5-(2-chloro-4-(methylsulfonyl)benzoyl)-2,2-dimethyl-1,3-dioxane-4,6-dione] | did not develop chlorosis | growth of some of them was reduced | – | – |
| CCCC1(CCC)OC(=O)C(=C(O)CCc2ccccc2)C(=O)O1 [III-6, 5-(3-phenylpropanoyl)-2,2-dipropyl-1,3-dioxane-4,6-dione] | – | – | 2.6 µM | more active |
| CC(C)CC(O)=C1C(=O)OC2(CCCC2)OC1=O [VII-2, 8-(3-methylbutanoyl)-6,10-dioxaspiro [4.5] decane-7,9-dione] | – | – | 3.3 µM | – |
